From patent US6504005B1, “Long-acting drugs and pharmaceutical compositions comprising them” (Yeda Research and Development Co. Ltd., priority 1996, dated 2003)
Like-named read-outs stand apart in the source and are kept apart here.

Assays:
[1] = tested on: experimental animal models; conditions: cited from earlier work
[2] = target: insulin receptor tyrosine kinase (Rattus norvegicus, UniProt P15127); assay: Insulin receptor tyrosine kinase activity, [poly(Glu4Tyr)] phosphorylating assay (cell-free)
Method: Briefly, the liver was homogenized in the presence of proteinase inhibitors, solubilized with 1% Triton X-100, and centrifuged. The supernatant was allowed to pass through a wheat-germ agglutinin (WGA)-agarose column (Sigma). Adsorbed insulin receptor portion was eluted with 0.3M N-acetyl-D-glucose amine in 50 mM HEPES buffer, pH 7.4, containing 0.1% Triton X-100, 10% glycerol, and 0.15M NaCl.
(iv) Receptor Tyrosine Kinase Activity Measurement
In this assay insulin activates its own receptor to phosphorylate a random copolymer containing L-glutamic acid and L-tyrosine at 4:1 molar ratio [Poly(Glu4Tyr)]SEQ ID NO:1. The standard enzyme assay mixture (final volume 60 μl in 50 mM Hepes, pH 7.4-0.1% Triton X-100) contained WGA purified insulin receptor (5μg protein), 20 mM MgCl2, 2 mM MnCl2, 100 μM ATP and varying concentrations (from 1 ng/ml to 10 mg/ml) of insulin or insulin derivative. Following a 30 min preincubation at 22° C., the reaction was initiated by adding Poly(Glu4Tyr) SEQ ID NO:1 (final concentration 0.7 mg/ml), it proceeded for 20 min at 22° C. and was terminated by adding EDTA (20 mM). Phosphotyrosine content in PolyGlu4Tyr was quantitated by a radio-immunoassay procedure using specific monoclonal antibodies to phosphotyrosine (final dilution 1: 100,000) and ^125I-BSA-phosphotyrosine conjugate.

chymotrypsin and trypsin = assay: Proteolysis by a mixture of chymotrypsin and trypsin (analytical HPLC); conditions: pH 7.4, 37° C., chymotrypsin and trypsin 0.5% w/w each
Method: Chymotrypsin and trypsin (0.5% w/w, of each) was then added. At the indicated time points aliquots were withdrawn and subjected to analytical HPLC procedure.

normal rats = assay: Single intraperitoneal administration to normal rats, blood glucose levels; type: in vivo; conditions: single i.p. injection, 3 mg/rat
Method: This assay reflects the post-subcutaneous long-acting feature of insulin (or insulin derivatives) within the circulation. Normal rats received a single intraperitoneal injection of native insulin, NPH-insulin and (Fmoc)2-insulin (3 mg/rat), and their blood glucose levels were monitored over a period of three days.
Blood glucose levels were followed for two days.

STZ-diabetic rats = assay: Single subcutaneous administration to STZ-diabetic rats (blood glucose, daily weight gain); conditions: STZ rats, single s.c. 1 mg, followed seven days
Method: Diabetes was induced by a single intravenous injection of a freshly prepared solution of streptozotocin (55 mg/kg body weight) in 0.1M citrate buffer (pH 4.5) according to Meyerovitch et al., 1987.
Blood glucose levels and daily weight gains were followed over a period of seven days.
Group C (n=5) received the vehicle only (2.0 ml of 20% DMSO). Blood glucose levels were determined daily.

[3] = Solubility and appearance in aqueous buffer (pH 7.4)
[4] = background statement; cited from earlier work
Staphylococcus aureus = conditions: for Antimicrobial potency (%): relative to cephalexin control; for IC50: read-out: Concentration inhibiting 50% of bacterial growth (μM) (IC50)
Method: At the indicated time points, aliquots were withdrawn and analyzed for their potency to arrest growth of Staphylococcus aureus. Bacterial growth was then evaluated by increased turbidity measured spectroscopically at 700 nm.

insulin receptor tyrosine kinase, sequence (P15127 27-759 limits assumed): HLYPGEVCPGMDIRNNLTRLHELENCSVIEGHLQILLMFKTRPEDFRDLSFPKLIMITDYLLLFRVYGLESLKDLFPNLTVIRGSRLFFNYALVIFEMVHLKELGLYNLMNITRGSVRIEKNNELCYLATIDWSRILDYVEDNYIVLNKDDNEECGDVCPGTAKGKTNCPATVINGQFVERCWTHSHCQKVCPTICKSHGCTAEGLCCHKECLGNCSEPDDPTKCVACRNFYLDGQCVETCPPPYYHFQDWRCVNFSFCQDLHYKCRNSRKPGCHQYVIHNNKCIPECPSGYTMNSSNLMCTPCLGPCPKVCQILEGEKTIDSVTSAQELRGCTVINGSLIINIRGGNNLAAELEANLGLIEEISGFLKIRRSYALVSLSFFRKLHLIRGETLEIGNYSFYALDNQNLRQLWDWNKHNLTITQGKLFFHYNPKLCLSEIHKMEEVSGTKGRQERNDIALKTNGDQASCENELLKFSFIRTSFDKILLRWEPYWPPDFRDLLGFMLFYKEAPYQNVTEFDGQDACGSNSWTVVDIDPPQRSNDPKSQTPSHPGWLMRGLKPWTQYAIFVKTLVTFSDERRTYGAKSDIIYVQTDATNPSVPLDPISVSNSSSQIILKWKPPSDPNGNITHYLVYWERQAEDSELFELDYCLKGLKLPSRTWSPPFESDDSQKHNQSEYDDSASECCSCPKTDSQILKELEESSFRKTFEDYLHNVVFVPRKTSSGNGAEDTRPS
insulin receptor tyrosine kinase, sequence (P15127 764-1383 partner limits assumed): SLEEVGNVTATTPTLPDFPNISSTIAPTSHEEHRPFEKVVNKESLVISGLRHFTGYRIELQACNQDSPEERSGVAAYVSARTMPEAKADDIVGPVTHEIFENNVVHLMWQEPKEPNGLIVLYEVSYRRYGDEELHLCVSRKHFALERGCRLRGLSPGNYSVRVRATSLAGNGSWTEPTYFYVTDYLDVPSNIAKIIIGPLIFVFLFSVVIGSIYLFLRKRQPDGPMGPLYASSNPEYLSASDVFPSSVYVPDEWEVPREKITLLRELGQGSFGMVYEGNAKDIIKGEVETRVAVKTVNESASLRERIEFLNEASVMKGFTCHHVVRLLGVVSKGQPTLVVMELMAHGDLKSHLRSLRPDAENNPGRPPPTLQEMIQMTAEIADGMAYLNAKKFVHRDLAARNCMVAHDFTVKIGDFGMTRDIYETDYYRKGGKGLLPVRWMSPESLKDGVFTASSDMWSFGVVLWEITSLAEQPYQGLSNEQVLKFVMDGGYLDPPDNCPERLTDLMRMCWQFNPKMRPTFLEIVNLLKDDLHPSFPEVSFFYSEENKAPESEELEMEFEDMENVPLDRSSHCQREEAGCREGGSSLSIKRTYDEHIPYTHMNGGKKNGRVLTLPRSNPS

CC(C)C[C@H](NC(=O)OCC1c2ccccc2-c2ccccc21)C(=O)O [Fmoc-leucine]
Index of toxicity [1]: low index of toxicity

Native insulin: Human insulin, native hormone; parent drug and reference
Biological potency following incubation (2 days, 37° C., pH 8.5) ([2]; after 2 days, 37° C., pH 8.5): 100
Biological potency (%) ([2]; of native insulin potency, before incubation, [poly(Glu4Tyr)] phosphorylating assay): 100%
Concentration for half maximal effect ([2]; receptor tyrosine kinase assay): 20 ± 3 ng/mL
Proteolysis t½ (chymotrypsin and trypsin): 30 min
Period of hypoglycemia / reduced blood glucose (normal rats): about 12 hours
Recovery from hypoglycemia, t½ (normal rats): 480 min
Daily weight gain (STZ-diabetic rats): 0.57±0.08 g/rat/day
Appearance in aqueous buffer (pH 7.4) [3]: clear
Solubility in aqueous buffer (pH 7.4, mg/ml) [3]: ˜4 or higher mg/ml
Half-life in plasma [4]: 5 to 6 min

CC1=C(C(=O)O)N2C(=O)[C@@H](NC(=O)[C@H](NC(=O)OCC3c4ccccc4-c4ccccc43)c3ccccc3)[C@H]2SC1 [Fmoc-cephalexin, N-Fmoc-cephalexin]
Antimicrobial potency (%) (Staphylococcus aureus; after 1 day at pH 7.4, 37° C.): 10%
Antimicrobial potency (%) (Staphylococcus aureus; after 3 days at pH 7.4, 37° C.): 59%
Antimicrobial potency (%) (Staphylococcus aureus; after 6 days at pH 7.4, 37° C.): 100%
Antimicrobial potency (%) (Staphylococcus aureus; after 6 days at pH 7.4, 37° C., listed as N-Fmoc-cephalexin): about 50%
Antimicrobial potency (%) (Staphylococcus aureus; no incubation): ~6%
Stability upon incubation (Staphylococcus aureus; pH 7.4, 37° C.): significantly more stable
IC50 (Staphylococcus aureus; after 1 day at pH 7.4, 37° C.): 15 µM
IC50 (Staphylococcus aureus; after 3 days at pH 7.4, 37° C.): 9 µM
IC50 (Staphylococcus aureus; after 6 days at pH 7.4, 37° C.): 4.5 µM
IC50 (Staphylococcus aureus; no incubation): 23 µM
Stability to hydrolysis by penicillinase (penicillinase): more stable to hydrolysis by penicillinase than the parent compound
